{
  "source": "patent US20250186485A1",
  "about": "“HYDRATION COMPOSITIONS” (priority 2017, published 2025)",
  "key": {"[1]": {"tested_on": "patients with disabling intermittent claudication or rest pain of the lower extremities", "text": "(§1) Dehydration often occurs in elderly population. Incidence of peripheral artery disease in patients over 60 years of age ranges between 18 and 29%. It was hypothesized that dehydration aggravates symptoms of PAD. Patients with disabling claudication or rest pain resistant to standard medical therapy were instructed to drink between 2,500 to 3000 milliliters of water according to their body mass.\n(§2) Patients without a past history of Congestive Heart Failure or renal insufficiency were included in the following example without interrupting exercises they were performing or medication they were receiving. Ninety percent of the patients were receiving aspirin and 100% of them Statins and Cilostazol at least for 5 months before starting the protocol. (See Table 2 below.)\n(§3) All patients belonged to category IIb of Fontaine and grade 1 category 2 and 3 of Rutherford.\n(§4) Protocol: Complete physical examination and laboratory work were performed. Ankle-brachial pressures were recorded. • 1) Graphics of skin temperature were obtained in both feet using a Flir Thermal Camera (Flir Systems Inc.) in a room at 24 degrees Celsius. (See FIGS. 3 and 4) • 2) Time and distance to claudication using a treadmill at 3 miles per hour was recorded. • 3) Subjective classification of pain intensity from […] was documented. (0=no pain, 10=intense pain) • 4) Skin color-including the absence and/or reduction in abnormal variations in skin color, skin tone and skin elasticity.\n(§5) Duplex of the abdominal artery, iliac arteries and infra-inguinal vessels was performed in every patient. Patients were followed weekly and underwent regular blood tests. Patients were recommended to drink 3,000 milliliters of water a day; fluids like tea and milk were counted in addition to water. This recommendation was the part of the protocol and it was carefully controlled.\nStatistical analysis: software utilized: SPSS 20 Qualitative variables were expressed in percentages. Quantitative variables were analyzed with the test of Shapiro-Wilk. Continuous variables were expressed as median, 95% confidence intervals and interquartile intervals. Wilcoxon Signed Rank Test was also utilized P<0.05 was considered significant."}, "[2]": {"tested_on": "patients with disabling intermittent claudication or rest pain of the lower extremities", "text": "as §1, §2, §3, §4, §5", "remark": "listed apart in the source"}, "[3]": {"tested_on": "patient with right foot rest pain and disabling claudication", "conditions": "Case 2; for walking distance without pain: three liters of fluid a day", "text": "A patient came to the consult with right foot rest pain, pallor and coldness up to the knee. […] Rest pain started one week before the consult and their claudication became disabling one month before. The patient was drinking less than 700 milliliters a day of fluids. […] Before proceeding to amputation, proper hydration was achieved. […] Three liters of fluid a day was recommended and the patient was discharged."}, "[4]": {"tested_on": "patient with intermittent claudication of the lower extremities and abdominal angina", "conditions": "Case 1", "method": "A person complaining of 10 step intermittent claudication of the lower extremities, abdominal angina that produced a 15 Kg weight loss, and an abnormal renal function with a creatinine of 3.1 mg per deciliter.\nThe patient was having intermittent claudication for years but in the last four months it became disabling.\nOn physical exam patient had no palpable pulses.\nThe patient was admitted, stool cultures performed and patient was rehydrated with precaution considering their heart condition. […] After four days the patient was discharged and asked to drink 2.5 liters of fluids a day."}},
  "note": "Like-named read-outs stand apart in the source and are kept apart here.",
  "data": [
    {"compound": "O", "note": "[water]", "values": [
      {"measurement": "pain intensity (final) Median", "setting": "[1]; 0=no pain, 10=intense pain, CI 1 to 2.341, initial median 6 (6 to 8), p<0,0001", "result": 2},
      {"measurement": "final Median dorsal temperature of the first right toe after treatment", "setting": "[1]; FIG. 5, median, 95% confidence interval 29.300 to 31.468, initial median 29.95 (28 to 31)", "result": 30.65},
      {"measurement": "final Median plantar temperature of the first right toe after treatment", "setting": "[1]; FIG. 6, median, CI 28.464 to 30.302, initial median 28.50 (27.366 to 29.939), p:0.0347", "result": 29.25},
      {"measurement": "Median temperature of the plantar aspect of the left foot after hydration", "setting": "[1]; after 6 weeks of hydration, before 28.40 (26.82-30), p: 0.030", "result": "29.20 (26.70-30.92) ° C."},
      {"measurement": "Median temperature of the plantar aspect of the right foot after 6 weeks", "setting": "[1]; after 6 weeks of hydration, before 28.70 (27-31), p: 0.011", "result": "29 (27.70-31) ° C."},
      {"measurement": "Median temperature of the dorsum of the left foot after 6 weeks", "setting": "[1]; after 6 weeks of hydration, before 29.40 (27.72-31.30), p: 0.009", "result": "30.20 (27.70-31.70) ° C."},
      {"measurement": "Median temperature of the dorsum of the right foot after hydration", "setting": "[1]; after 6 weeks of hydration, before protocol 29.95 (27.60-31.15), p: 0.02", "result": "30.35 (28.12-31.60) ° C."},
      {"measurement": "Decrease of pain sensation recorded, percentage of patients", "setting": "[1]; after treatment", "result": "91.7 % of patients"},
      {"measurement": "Patients with improvement of pain sensation of more than 50%", "setting": "[1]; after treatment", "result": "80 % of the patients"},
      {"measurement": "Median ankle/brachial index after 6 weeks of treatment", "setting": "[1]; initial median 0.6 (0.50 to 0.69), p<0,0001", "result": "0.75 (0.62 to 0.80)"},
      {"measurement": "Final pain intensity sensation, patient 15", "setting": "[1]; single patient 15, final intake of water 3000 ml, initial 6", "result": 0},
      {"measurement": "Distance to claudication (final), patient 15", "setting": "[1]; single patient 15, final intake of water 3000 ml, initial 300 mts", "result": 6000, "unit": "mts"},
      {"measurement": "Final ankle/brachial index, patient 15", "setting": "[1]; single patient 15, final intake of water 3000 ml, initial index 0.77", "result": 0.83},
      {"measurement": "distance to claudication, final Median", "setting": "[1]; treadmill 3 miles per hour, end of 6 weeks, CI 382.947 to 800, initial median 100 (50 to 200), p<0.0001", "result": 535},
      {"measurement": "Time to claudication after hydration, Median", "setting": "[1]; treadmill, 95% CI 4.195 to 9.209, initial median 1.3 (0.7 to 2.500), p<0.0001", "result": 6.3, "unit": "min"},
      {"measurement": "status related to lower extremity ischemia", "setting": "[2]; 35 patients in whom proper hydration was achieved", "result": "all of them improved"},
      {"measurement": "ulcers in the toes and ankle", "setting": "[2]; anecdotal, drinking 3 liters of water a day", "result": "reversed the lesions"},
      {"measurement": "Time and distance to claudication, cutaneous temperature, ankle-brachial pressure and subjective pain sensation", "setting": "[2]; patients who drank more than 2.5 liters of fluids a day (35 of the 36 patients)", "result": "improved significantly"},
      {"measurement": "walking distance without pain", "setting": "[3]; after seven months", "result": "walked four kilometers without pain"},
      {"measurement": "walking distance without pain", "setting": "[3]; after three months", "result": "walked three blocks without pain"},
      {"measurement": "rest pain of the right foot", "setting": "[3]; two days after proper hydration was achieved", "result": "pain subsided"},
      {"measurement": "walking distance without pain", "setting": "[4]; 14 months after last admission, 2.5 liters of fluids a day", "result": "more than 4 blocks"},
      {"measurement": "walking distance without pain", "setting": "[4]; after rehydration in hospital, second day", "result": 50, "unit": "meters"}
    ]}
  ]
}
